Measured values from US12155103B2, “Electrochemical storage devices comprising chelated metals” (The Regents of the University of Colorado, a body corporate, priority 2019, dated 2024).
Read-outs that look alike come from different tables or passages of the source.

Tests used:
[1] = cited from earlier work; for reduction potential E^0: literature or previously reported values
[2] = cited from earlier work
[3] = Stability of iron-chelate complexes at pH 9
[4] = cited from earlier work; remark: listed apart in the source
[5] = Cyclic voltammetry and kinetic analysis on glassy carbon electrode; assay type: physicochemical; conditions: for Diffusion Coefficient (Do) / E^0 / Heterogenous Reduction Rate Constant (k^0): glassy carbon electrode
Procedure: Cyclic voltammetry was conducted using a Gamry Interface 1000 potentiostat, an Ag/AgCl aqueous reference electrode (3 M NaCl filling solution), a Pt wire counter electrode, and a 3-mm-diameter glassy carbon electrode. Half-cell experiments were conducted on a solution containing 5 mM K[Cr(PDTA)], 5 mM K4Fe(CN)6, and 0.125 M K2B4O7 at pH 9.
For an irreversible reaction, the peak current, ip, is given by equation (1).
[formula] where ip is in amperes, A is the electrode area (cm^2), CO° is the bulk concentration of oxidant (moles cm^−3), v is the potential sweep rate (V s^−1), DO is the diffusion coefficient of the oxidant, α is the charge transfer coefficient, and na is the number of […] involved in the rate-determining step. This equation reduces, at 25° C. to equation (2). ip=2.99*10^5n(αna)^1/2ACO^0DO^1/2v^1/2 (2) ip vs. v^1/2 was plotted, giving a straight line, with the slope being proportional to DO. Assuming an αna value of ½ allowed for the solving of DO. For a totally irreversible peak, the peak potential, Ep, is a function of scan rate, the difference between Ep and the formal potential, E^0′, being related to the standard heterogeneous rate constant, k°. The peak current can be expressed as show in equation (3).
[formula] Ln(ip) vs. (Ep−E°′), at different scan rates was plotting, with the intercept being proportional to and allowing solving for k°. E°′ was found in literature to be −1.31 V vs Ag/AgCl. The bulk concentration was 0.005 M, and na was 1 as there is only 1 electron being transferred. The area of the electrode is 0.0707 cm^2 from a 3 mm diameter glassy carbon electrode. Scan rates were done at 25, 50, 100, 200, and 500 mV s^−1. The slope of ip vs. v^1/2 was 0.0747, and the intercept of ln(ip) vs. (Ep−E°′) was −13.527.
Half-cell measurements were made using cyclic voltammetry (CV), which was conducted using a Gamry Interface 1000 potentiostat, an Ag/AgCl aqueous reference electrode (3 M NaCl filling solution), a Pt wire counter electrode, and a 3-mm-diameter glassy carbon working electrode, unless otherwise noted. Solutions were first sparged with an inert gas, for example N2, helium, neon, or argon, or combinations thereof, for at least 15 minutes and then kept under a blanket of an inert gas, such as N2, helium, neon, or argon, or combinations thereof, while tests were performed. All testing was performed at ambient temperatures. For carbon paper cyclic voltammetry experiments, the same setup was used as with the glassy carbon electrode, but the working electrode was a piece of carbon paper. For all chromium complexes and Fe(CN)6 solution 5 mM solutions were utilized for all CV experiments except those utilizing carbon paper electrodes which utilized 50 mM solutions. Other metal chelate complexes have concentrations that are specified in the figure captions.
Cyclic voltammetry (CV) was performed to compare the electrochemical behavior of FeDTPA and CrPDTA with their respective unchelated metal ions. […] Compared to their non-chelated counterparts, a greater electrochemical reversibility is observed in the chelated over the non-chelated metals (FIG. 32).

[6] = Maximum solubility at room temperature (saturated or concentrated solution, UV-Vis at 506 nm; bulk electrolysis for K2FeDTPA); assay type: physicochemical
Procedure: A saturated solution of KCrPDTA was prepared by dissolving KCrPDTA crystals in minimal DI water at room temperature such that crystals remain undissolved. The solution was agitated for 1 day. […] For the Na^+ cation with CrEDTA, the solubility was determined from a concentrated impure solution containing 3:1 NaCl. […] For the K2 with Fe-DTPA, the solubility was determined from a concentrated impure solution containing 3:1 KCl.

E^0 [5] [V vs Ag/AgCl]	Molecule	Binding Constant (Fe^+2) [2]	Binding Constant (Fe^+3) [2]	Stability at pH 9 [3]	Heterogenous Reduction Rate Constant (k^0) [5] [×10⁻⁶ cm/s]	other results
–	[Fe+2].c1ccc(-c2ccccn2)nc1.c1ccc(-c2ccccn2)nc1.c1ccc(-c2ccccn2)nc1 [Fe(bpy)3]	4.2	16.29	Insoluble	–	reduction potential E^0 [1]: +0.903 V vs. Ag/AgCl
–	Mn EDTA	–	–	–	–	RFB Electrolyte solubility ([4]; pH 3): 400 mM; RFB Electrolyte solubility ([4]; pH 4.5): 400 mM; RFB Electrolyte solubility ([4]; pH 6): 400 mM; RFB Electrolyte solubility ([4]; pH 6.6): 400 mM; RFB Electrolyte solubility ([4]; pH 8.0): 400 mM
0.55	[Cl][Fe]([Cl])[Cl] [FeCl3]	–	–	–	3.4	Diffusion Coefficient (Do) [5]: 7.55 10^−6 cm^2 s^−1; heterogeneous reduction rate constant k^0 ([5]; glassy carbon, 3 M HCl): 3.4e-06 cm/s; reduction potential E^0 [1]: 0.55 V vs. Ag/AgCl
–	O=C([O-])CN(CCN(CC(=O)[O-])CC(=O)[O-])CC(=O)[O-].[Fe+3].[Na+] [FeEDTA]	14.33	25.10	Dimerizes	–	–
–	O=C(O)CN(CCN(CC(=O)O)CC(=O)O)CCN(CC(=O)O)CC(=O)O [DTPA, diethylenetriaminepentaacetic acid]	16.55	28.60	–	–	–
–	O=C(O)CN(CCN(CC(=O)O)CC(=O)O)CC(=O)O.[Cr] [CrEDTA]	–	–	–	–	Cr^3+/2+ reduction potential ([1]; near neutral pH): −0.99 V vs. SHE
−0.15	O=C([O-])CN(CCN(CC(=O)[O-])CC(=O)[O-])CCN(CC(=O)[O-])CC(=O)[O-].[Fe+3].[K+].[K+] [FeDTPA K2]	–	–	–	15.5	Diffusion Coefficient (Do) [5]: 2.41 10^−6 cm^2 s^−1; maximum solubility / highest concentration cycled ([6]; pH 9, 20° C., limited by viscosity): 1350 mM; Max Solubility at RT ([6]; room temperature): 1350 mM
–	O=C([O-])CN(CCO)CCN(CC(=O)[O-])CC(=O)[O-].[Fe+3] [FeHEDTA]	12.2	19.7	Dimerizes	–	–

Molecule	E^0 [5] [V vs Ag/AgCl]	Binding Constant (Fe^+2) [2]	Binding Constant (Fe^+3) [2]	Stability at pH 9 [3]	Heterogenous Reduction Rate Constant (k^0) [5] [×10⁻⁶ cm/s]	other results
[Cl][Cr]([Cl])[Cl] [CrCl3]	−0.64	–	–	–	10	–
